Laboratory results reported in PubChem BioAssay AID248 (DTP/NCI, 2004).
Where “and” joins values, the source holds several entries; their conditions need not be identical. Equal entries are not always repeated. Inconclusive results and toxic doses are left out. Cut-off read from the data, not from the text of the source: active = T/C of 150% or more; inactive = T/C below 125%.

System: L1210 leukemia ip in BDF1 mice, survival T/C
Test: NCI In Vivo Anticancer Drug Screen. Data for tumor model L1210 Leukemia (intraperitoneal) in B6D2F1 (BDF1) mice
Settings: endpoint: mean survival time, higher = longer survival
Outline: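 Antitumor effect is assessed in tumor-bearing animals. Survival in the compound arm is compared with a vehicle-dosed control arm and expressed as their quotient.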

[1] = dose: 100.0 mg/kg/injection, schedule: Q01DX001 (ip), vehicle: saline with Tween-80
[2] = dose: 200.0 mg/kg/injection, schedule: Q01DX001 (ip), vehicle: saline with Tween-80
[3] = dose: 400.0 mg/kg/injection, schedule: Q01DX001 (ip), vehicle: saline with Tween-80
[4] = dose: 100.0 mg/kg/injection, schedule: Q01DX001 (ip), vehicle: saline
[5] = dose: 100.0 mg/kg/injection, schedule: Q04DX003 (ip), vehicle: saline
[6] = dose: 200.0 mg/kg/injection, schedule: Q01DX001 (ip), vehicle: saline
[7] = dose: 100.0 mg/kg/injection, schedule: Q04DX003 (ip), vehicle: saline with Tween-80
[8] = dose: 200.0 mg/kg/injection, schedule: Q04DX003 (ip), vehicle: saline with Tween-80
[9] = dose: 400.0 mg/kg/injection, schedule: Q04DX003 (ip), vehicle: saline with Tween-80
[10] = dose: 400.0 mg/kg/injection, schedule: Q01DX001 (ip), vehicle: saline
[11] = dose: 100.0 mg/kg/injection, schedule: Q04DX002 (ip), vehicle: Klucel (hydroxypropylcellulose) (HPC)
[12] = dose: 200.0 mg/kg/injection, schedule: Q04DX002 (ip), vehicle: Klucel (hydroxypropylcellulose) (HPC)
[13] = dose: 400.0 mg/kg/injection, schedule: Q04DX002 (ip), vehicle: Klucel (hydroxypropylcellulose) (HPC)
[14] = dose: 100.0 mg/kg/injection, schedule: Q01DX009 (ip), vehicle: Klucel (hydroxypropylcellulose) (HPC)
[15] = dose: 200.0 mg/kg/injection, schedule: Q01DX009 (ip), vehicle: Klucel (hydroxypropylcellulose) (HPC)
[16] = dose: 400.0 mg/kg/injection, schedule: Q01DX009 (ip), vehicle: Klucel (hydroxypropylcellulose) (HPC)

Measured: T/C

N=c1ccc2cc3ccc4ccccc4c3n(O)c-2c1
inactive: [1] 113 % of control | [2] 95 % of control | [3] 113 % of control

COc1cc(OC)c(/C=C/c2cc3c4ccccc4ccc3[n+](C)c2)c(OC)c1
inactive: dose: 6.25 mg/kg/injection, schedule: Q01DX001 (ip), vehicle: saline with Tween-80 104 % of control | dose: 12.5 mg/kg/injection, schedule: Q01DX001 (ip), vehicle: saline with Tween-80 107 % of control

CC(C)C1=CC23CCC4C(C)(C(=O)O)CCCC4(C)C2CC1C1(Cl)C(Cl)=C(Cl)C(Cl)(Cl)C31Cl (centres undefined)
inactive: dose: 75.0 mg/kg/injection, schedule: Q01DX001 (ip), vehicle: other 89 % of control | dose: 150.0 mg/kg/injection, schedule: Q01DX001 (ip), vehicle: other 89 % of control

CC(C)(C)c1ccc(SCN(CSc2ccc(C(C)(C)C)cc2)Cc2ccccc2)cc1
inactive: dose: 100.0 mg/kg/injection, schedule: Q01DX001 (ip), vehicle: other 105 % of control | dose: 200.0 mg/kg/injection, schedule: Q01DX001 (ip), vehicle: other 100 % of control | dose: 400.0 mg/kg/injection, schedule: Q01DX001 (ip), vehicle: other 94 % of control

CC(C)(C)C1CCC2(CC1)CCN(CCCN1CCCCCC1)CC2
inactive: dose: 50.0 mg/kg/injection, schedule: Q01DX001 (ip), vehicle: saline 96 % of control | [4] 107 % of control

CC(C)(C(=O)[O-])C(=O)O.[Co+3].[NH2-].[NH2-].[NH2-].[NH2-].[NH2-].[O-][Cl+3]([O-])([O-])O
inactive: dose: 100.0 mg/kg/injection, schedule: Q04DX002 (ip), vehicle: saline 92 % of control | dose: 200.0 mg/kg/injection, schedule: Q04DX002 (ip), vehicle: saline 95 % of control | dose: 400.0 mg/kg/injection, schedule: Q04DX002 (ip), vehicle: saline 106 % of control

CC1=C(Br)C(=O)C(C)=C(Br)C1=O
inactive: dose: 25.0 mg/kg/injection, schedule: Q04DX003 (ip), vehicle: other 95 % of control | dose: 50.0 mg/kg/injection, schedule: Q04DX003 (ip), vehicle: other 87 % of control | dose: 100.0 mg/kg/injection, schedule: Q04DX003 (ip), vehicle: other 100 % of control

CS(=O)(=O)OC[C@@H](O)[C@@H](O)COS(C)(=O)=O
inactive: dose: 100.0 mg/kg/injection, schedule: Q01DX009 (ip), vehicle: saline sonified 101 % of control | dose: 200.0 mg/kg/injection, schedule: Q01DX009 (ip), vehicle: saline sonified 98 % of control | dose: 400.0 mg/kg/injection, schedule: Q01DX009 (ip), vehicle: saline sonified 103 % of control

CCCCC[N+](C)(C)CCOC(=O)C1C2CC3OC(=O)C1C3C2 (centres undefined)
inactive: [5] 95 % of control

CC1(C)C(=O)C(C)(C)C1O
inactive: dose: 50.0 mg/kg/injection, schedule: Q04DX003 (ip), vehicle: saline 95 % of control | dose: 75.0 mg/kg/injection, schedule: Q01DX001 (ip), vehicle: acetone 106 % of control | [4] 97 % of control | [5] 93 % of control | dose: 150.0 mg/kg/injection, schedule: Q01DX001 (ip), vehicle: acetone 104 % of control | [6] 111 % of control | dose: 200.0 mg/kg/injection, schedule: Q04DX003 (ip), vehicle: saline 87 % of control | dose: 300.0 mg/kg/injection, schedule: Q01DX001 (ip), vehicle: acetone 106 % of control

O=C(Nc1ccc(C2=NCCN2)cc1)c1ccc(C(=O)Nc2ccc(C3=NCCN3)cc2)c(O)c1
inactive: dose: 15.0 mg/kg/injection, schedule: Q01DX Z (ip), vehicle: methylcellulose (MC) 96 % of control | dose: 30.0 mg/kg/injection, schedule: Q01DX Z (ip), vehicle: methylcellulose (MC) 98 % of control | dose: 60.0 mg/kg/injection, schedule: Q01DX Z (ip), vehicle: methylcellulose (MC) 93 % of control | dose: 120.0 mg/kg/injection, schedule: Q01DX Z (ip), vehicle: methylcellulose (MC) 93 % of control

O=C1CCC2C1CC1CC3C(=O)CCC3C12 (centres undefined)
inactive: dose: 50.0 mg/kg/injection, schedule: Q04DX002 (ip), vehicle: saline with Tween-80 113 % of control | dose: 100.0 mg/kg/injection, schedule: Q04DX002 (ip), vehicle: saline with Tween-80 98 % of control

O=C1C(Br)=CC(Br)(Br)C=C1Br
inactive: [7] 92 % of control | [8] 95 % of control | [9] 93 % of control

CNCCOC(=O)c1cc([N+](=O)[O-])c(C)s1
inactive: [4] 94 % of control | [6] 103 % of control | [10] 100 % of control

CNC(=O)C(CCC(=O)OC)NS(=O)(=O)c1ccc(C)cc1 (centres undefined)
inactive: [1] 100 % of control | dose: 100.0 mg/kg/injection, schedule: Q01DX009 (ip), vehicle: saline with Tween-80 104 % of control | [2] 100 % of control | dose: 200.0 mg/kg/injection, schedule: Q01DX009 (ip), vehicle: saline with Tween-80 96 % of control | [3] 100 % of control | dose: 400.0 mg/kg/injection, schedule: Q01DX009 (ip), vehicle: saline with Tween-80 104 % of control

CCCCCCC(C)CCCCCCCCNCCOC(=O)c1ccc(N)cc1 (centres undefined)
inactive: dose: 75.0 mg/kg/injection, schedule: Q01DX001 (ip), vehicle: saline 102 % of control | dose: 150.0 mg/kg/injection, schedule: Q01DX001 (ip), vehicle: saline 104 % of control

O=c1[nH]c(CCCc2ccccc2)c(Br)c(=O)[nH]1
inactive: [11] 100 % of control | [12] 100 % of control | [13] 92 % of control

CCOC(=O)NNOC(=O)CC
inactive: [1] 92 % of control | [2] 95 % of control

O=C(Nc1ccc(F)cc1)Oc1ccccn1
inactive: dose: 100.0 mg/kg/injection, schedule: Q01DX001 (ip), vehicle: Klucel (hydroxypropylcellulose) (HPC) 101 % of control | [14] 95 % of control | [11] 94 % of control and 100 % of control | dose: 100.0 mg/kg/injection, schedule: Q04DX003 (ip), vehicle: Klucel (hydroxypropylcellulose) (HPC) 101 % of control | dose: 200.0 mg/kg/injection, schedule: Q01DX001 (ip), vehicle: Klucel (hydroxypropylcellulose) (HPC) 104 % of control | [15] 101 % of control and 87 % of control | [12] 94 % of control and 97 % of control | dose: 200.0 mg/kg/injection, schedule: Q04DX003 (ip), vehicle: Klucel (hydroxypropylcellulose) (HPC) 103 % of control | dose: 400.0 mg/kg/injection, schedule: Q01DX001 (ip), vehicle: Klucel (hydroxypropylcellulose) (HPC) 93 % of control | [16] 95 % of control and 96 % of control | [13] 94 % of control and 97 % of control | dose: 400.0 mg/kg/injection, schedule: Q04DX003 (ip), vehicle: Klucel (hydroxypropylcellulose) (HPC) 105 % of control

CCOC(=O)C/C(C)=N\N=C(\C)C(=O)OCC
inactive: [4] 98 % of control | [6] 98 % of control | [10] 92 % of control

COc1cc(Cn2cccc2/C=C(\C#N)C(N)=O)cc(OC)c1
inactive: dose: 25.0 mg/kg/injection, schedule: Q04DX002 (ip), vehicle: Klucel (hydroxypropylcellulose) (HPC) 94 % of control | dose: 50.0 mg/kg/injection, schedule: Q04DX002 (ip), vehicle: Klucel (hydroxypropylcellulose) (HPC) 97 % of control | [11] 105 % of control

O=c1[nH]c2ccccc2n1C1OC(CO)C(O)C1O (centres undefined)
inactive: [4] 98 % of control | [6] 93 % of control | [10] 100 % of control

CC1(c2cccc3ccccc23)OCC2(CCCCC2)CO1
inactive: dose: 81.3 mg/kg/injection, schedule: Q01DX009 (ip), vehicle: DMSO 109 % of control | dose: 100.0 mg/kg/injection, schedule: Q04DX003 (ip), vehicle: DMSO 92 % of control | dose: 200.0 mg/kg/injection, schedule: Q04DX003 (ip), vehicle: DMSO 90 % of control | dose: 400.0 mg/kg/injection, schedule: Q04DX003 (ip), vehicle: DMSO 95 % of control

CC(C)C1CCC(/C=C(\C#N)C2CCC([N+](=O)[O-])CC2)CC1 (centres undefined)
inactive: dose: 100.0 mg/kg/injection, schedule: Q04DX002 (ip), vehicle: other 95 % of control | dose: 200.0 mg/kg/injection, schedule: Q04DX002 (ip), vehicle: other 95 % of control | dose: 400.0 mg/kg/injection, schedule: Q04DX002 (ip), vehicle: other 92 % of control

C/C=C/C=N/NC(=O)c1ccccc1O
inactive: [14] 102 % of control | [15] 105 % of control | [16] 94 % of control

c1ccc([Si]2(c3ccccc3)c3ccccc3-c3ccccc32)cc1
inactive: [7] 94 % of control | [8] 87 % of control | [9] 87 % of control
